The target in one data set is T1, rat glucokinase (Rattus norvegicus, UniProt P17712).
T1 sequence (P17712 1-465): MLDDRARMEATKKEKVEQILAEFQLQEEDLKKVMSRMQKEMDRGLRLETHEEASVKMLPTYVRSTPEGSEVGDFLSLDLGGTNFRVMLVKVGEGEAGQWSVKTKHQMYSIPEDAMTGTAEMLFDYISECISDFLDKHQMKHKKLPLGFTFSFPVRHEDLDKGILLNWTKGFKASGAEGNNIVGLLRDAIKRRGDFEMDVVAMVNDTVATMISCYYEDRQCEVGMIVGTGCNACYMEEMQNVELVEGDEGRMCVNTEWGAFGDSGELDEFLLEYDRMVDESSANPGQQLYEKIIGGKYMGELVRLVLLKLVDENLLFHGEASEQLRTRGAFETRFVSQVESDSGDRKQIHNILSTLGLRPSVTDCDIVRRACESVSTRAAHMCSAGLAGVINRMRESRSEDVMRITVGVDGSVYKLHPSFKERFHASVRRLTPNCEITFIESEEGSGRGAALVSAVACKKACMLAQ
Conditions: read-out: EC50 activation of glucokinase; recombinant rat enzyme, in vitro; cited from earlier work.

A further data set deals with human glucokinase (Homo sapiens, UniProt P35557). Conditions: read-out: EC50 activation of glucokinase; recombinant human enzyme, in vitro; cited from earlier work.
human glucokinase, sequence (P35557 whole entry): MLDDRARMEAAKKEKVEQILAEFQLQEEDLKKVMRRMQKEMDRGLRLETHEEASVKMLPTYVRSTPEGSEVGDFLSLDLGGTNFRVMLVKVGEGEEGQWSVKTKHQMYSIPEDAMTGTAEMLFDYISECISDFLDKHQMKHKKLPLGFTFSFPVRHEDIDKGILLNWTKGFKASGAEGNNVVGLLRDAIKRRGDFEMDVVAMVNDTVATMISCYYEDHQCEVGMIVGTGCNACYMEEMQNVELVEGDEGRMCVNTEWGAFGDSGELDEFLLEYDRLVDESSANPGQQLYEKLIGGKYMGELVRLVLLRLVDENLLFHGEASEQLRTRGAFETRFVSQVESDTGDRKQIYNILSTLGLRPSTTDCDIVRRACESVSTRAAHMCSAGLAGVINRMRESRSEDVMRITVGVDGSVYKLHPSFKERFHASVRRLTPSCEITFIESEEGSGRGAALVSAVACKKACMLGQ
A further data set deals with diabetic mice. Conditions: dosed acutely and once daily for up to 28 days, rapid onset of action; cited from earlier work.
The next data set deals with rat hepatocytes. Conditions: cited from earlier work.
Data set [1] relates to healthy, non-diabetic patients. Particulars: doses of 40 mg or 80 mg; hypoglycaemia defined as 2.7 mmol/l; cited from earlier work.
The subject of data set [2] is hospitalised diabetic patients with known or suspected COVID-19. Particulars: 60 patients, test and control group combined (blinded); 12 deaths expected from Coronad study.
Data set [3] relates to normo-glycaemic insulin resistant rats. Conditions: dosed acutely and once daily for up to 28 days, rapid onset of action; cited from earlier work.
The test system of a further data set is human hepatocytes. Particulars: cited from earlier work.
Data set [4] deals with Japanese type 2 diabetic subjects. Particulars: cited from earlier work.
The next data set has as its system healthy animals. Particulars: cited from earlier work.

The EC50 is the concentration giving half of the maximal effect. For `COC[C@H](C)Oc1cc(Oc2cnc(C(=O)N3CCC3)cn2)cc(C(=O)Nc2cnc(C)cn2)c1` [AZD1656, 3-{[5-(Azetidin-1-ylcarbonyl)pyrazin-2-yl]oxy}-5-{[(1S)-1-methyl-2-(methyloxy)ethyl]oxy}-N-(5-methylpyrazin-2-yl)benzamide], the EC50 is 72 nM on rat glucokinase, 57 nM on human glucokinase, 470 nM in the data set on rat hepatocytes and 1390 nM in the data set on human hepatocytes. Moreover, the plasma glucose levels result (with diabetic mice; in [3]) was “reduces plasma glucose levels in a dose-dependent fashion” in each case. Further, the hypoglycaemia result in data set [1] was “not to cause hypoglycaemia”. The “deaths among patients who completed the trial protocol” value in data set [2] amounted to 5. In data set [4] (BID at high (40-200 mg/day), medium (20-140 mg/day) and low (10-80 mg/day) doses over 4 months), the “HbA1c and fasting plasma glucose (FPG) levels” value is “found to lower HbA1c and fasting plasma blood (FPG) glucose levels”. In data set [4] (at 4 months), the “change in HbA1c or FPG from baseline” value was “no statistically significant change”. The “time course of HbA1c/FPG effect” value in data set [4] (between weeks 8 and 16) is given as “transient trending towards pre-dose levels”. For the same compound, in the data set on healthy animals (healthy animals, chronic toxicology studies), the “changes in the liver, considered secondary to hypoglycaemia” value is “loss of hepatocellular glycogen”. Moreover, the chronic toxicology findings entry with healthy animals (healthy animals, higher doses, up to 12 months) is “severe hypoglycaemia at higher doses and sequalae such as Wallerian type nerve degeneration and skeletal muscle fibre degeneration”. Further, the glucose lowering effect entry in the data set with healthy animals (preclinical studies of up to 12-month duration) is “potent glucose lowering effect”.

Source of the values: patent US20230128372A1 (EXCALIBUR MEDICINES LIMITED, priority 2020, published 2023).
